Laboratory results from patent publication US9561231B2 (AbbVie Inc., priority 2012, dated 2017).
Marks after values point to notes of the source that are not given here.

What was measured:
[1] = system: LPS induced IL-6 production; test: LPS (lipopolysaccharide) induced IL-6 production mouse assay; conditions: 30 mg/kg oral, 1 h before LPS 2.5 mg/kg i.p.; serum IL-6 2 h after LPS; p<0.05
[2] = molecular target: T1, second (BD2: amino acids E352-E168) bromodomain of BRD4 (Homo sapiens, UniProt O60885); test: TR-FRET bromodomain binding assay, BRD4 BD2; conditions: TR-FRET assay protocol (A-G, compound concentration range); Ki calculated from IC50, probe Kd and probe concentration; read-out: TR-FRET Binding Ki: BRD4 (BDII_E352-M457)
T1 construct: protocol
Summary of the method: (§1)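 Values are Ki: IC50s from TR-FRET competition with an Alexa647-labeled BET-inhibitor probe were converted using probe Kd and probe concentration. Purified His-tagged bromodomain; pH 6.0 sodium phosphate buffer.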

[3] = molecular target: T2, first (BD1: amino acids K57-E168) bromodomain of BRD4 (Homo sapiens, UniProt O60885); test: TR-FRET bromodomain binding assay, BRD4 BD1; conditions: TR-FRET assay protocol (A-G, compound concentration range); Ki calculated from IC50, probe Kd and probe concentration; read-out: TR-FRET Binding Ki: BRD4 (BDI_K57-E168)
T2 construct: His-tagged first (BD1: amino acids K57-E168)
Summary of the method: as §1

[4] = system: MX-1 human breast cancer xenograft; test: Xenograft tumor growth inhibition assay: MX-1; conditions: for % TGD (tumor growth delay): QDx14, endpoint 1000 mm^3; for % TGI (tumor growth inhibition): QDx14, tumor volumes study day 27
[5] = system: breast cancer cell line MX-1; test: MX-1 cell line proliferation assay (3-day); type: cell-based; conditions: Homo sapiens, MX1; MX-1 cells, 72 h incubation, Cell Titer Glo; read-out: Cellular proliferation: EC50
Summary of the method: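 EC50 derived by sigmoidal fitting of Cell Titer Glo signal relative to DMSO controls. Compound, 3 μM down to 0.0001 μM final in 3-fold steps, was added to adhered MX-1 cells (5000/well, RPMI + 10% FBS) for a 3-day incubation at 37° C.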

[6] = system: MV4-11 human AML xenograft; test: Xenograft tumor growth inhibition assay: MV4-11; type: in vivo, SCID-beige female mice; conditions: QDx14, tumor volumes study day 31
[7] = system: OPM-2 human multiple myeloma cancer xenograft; test: Xenograft tumor growth inhibition assay: OPM-2; type: in vivo, SCID-beige female mice; conditions: 30 mg/kg/day PO

- Ki [2]: 107 nM
- Ki [3]: 28.2 nM
- EC50 [5]: 285 nM
Structure (SMILES): Cn1cc(-c2cc(NS(C)(=O)=O)ccc2Oc2ccc(F)cc2F)ccc1=O [Example 240, N-[4-(2,4-difluorophenoxy)-3-(1-methyl-6-oxo-1,6-dihydropyridin-3-yl)phenyl]methanesulfonamide]
- Inhibition of LPS induced IL-6 production, % inhibition [1]: 72.6 @ 30 mg/kg %
- % TGD (tumor growth delay) ([4]; 3 mg/kg/day PO): 20%
- % TGI (tumor growth inhibition) ([4]; 3 mg/kg/day PO): 40* %
- % TGD (tumor growth delay) ([4]; 10 mg/kg/day PO): 35** %
- % TGI (tumor growth inhibition) ([4]; 10 mg/kg/day PO): 55*** %
- % TGD (tumor growth delay) ([4]; 30 mg/kg/day PO): 51*** %
- % TGI (tumor growth inhibition) ([4]; 30 mg/kg/day PO): 61*** %
- % TGI (tumor growth inhibition) ([6]; 3 mg/kg/day PO): 0%
- % TGI (tumor growth inhibition) ([6]; 10 mg/kg/day PO): 23%
- % TGI (tumor growth inhibition) ([6]; 30 mg/kg/day PO): 65^b** %
- % TGI (tumor growth inhibition) ([7]; QDx14): 36** %
- % TGD (tumor growth delay) ([7]; QDx14, endpoint 1000 mm^3): 113** %
